Key:
MTT assay, MCF-12A = type: cell-based; details: human, MCF-12A cells (non-tumorigenic breast epithelial), read-out: Cytotoxic activity IC50, MCF-12A
Experimental: (§1) The cell lines used in the cytotoxicity study, besides MCF-12A, were purchased from European Collection of Cell Culture (ECACC, Salisbury, UK): HEK293 (human embryonic kidney, ATTC no. CRL-1573), A549 (Human lung carcinoma, ECACC no. 86012804), CCD39Lu (Human lung fibroblasts, ECACC no. 90110512), MCF-7 (Human breast adenocarcinoma, ECACC no. 86012803) and MDA-MB-231 (Human breast adenocarcinoma ECACC no. 92020424). Cell lines were cultured in DMEM medium without phenol red and supplemented with 10% (v/v) FBS, 1% penicillin-streptomycin and 1% L-glutamine. MCF-12A (ATTC no. […]) was purchased from American Type Culture Collection (ATCC Manassas, VA 20110 USA). MCF-12A cells were kept in 1:1 mixture of Dulbecco’s modified Eagle’s medium and Ham’s F12 medium, 20 ng/ml human epidermal growth factor, 100 ng/ml cholera toxin, 0.01 mg/ml bovine insulin, 500 ng/ml hydrocortisone and 5% horse serum. All cell lines were cultured at 37°C, in a humidified atmosphere containing 5% CO2.
(§2) Compounds were dissolved in DMSO to the final concentration of […]. A549, CCD39Lu, MCF-7, MDA-MB-231 and MCF-12A cells were seeded in 96 wells plates at density 2x10^4 cells/well and incubated overnight as described above. Subsequently, cells were treated with tested compounds at concentrations: 100 μM; 50 μM; 25μM; 12.5μM; 6 μM; 3 μM; 1.5 μM. […] Cells were incubated 72 h at 37°C in a humidified atmosphere containing 5% CO2 in the cell culture media appropriate for each cell line. Then, the medium was aspirated and 170 μl MTT solution (5mg/ml) was added to each well. Plates were incubated for 2 hours at 37°C, and then plates were centrifuged at 1200 rpm for 3 minutes. The formazan crystals were dissolved in 200 μl DMSO and plates were further agitated on a plate shaker at 300–500 rpm for 10 minutes. Absorbance at 570 nm (with reference wavelenght 650 nm) was measured using a plate reader (Biotek Instruments, Elx-800). Cell viability was calculated as a percentage relative to the control.

MTT assay, CCD39Lu = type: cell-based; details: human, CCD39Lu cells (non-tumorigenic lung fibroblasts), read-out: Cytotoxic activity IC50, CCD39Lu
Experimental: as §1, §2

MCF-7 cells = test: LDH release assay, MCF-7; type: cell-based, human; details: 72 h, Fig 2
Experimental: Cytotoxicity was evaluated by measuring the cell membrane permeability, using a LDH assay kit purchased from Cayman Chemical (Ann Arbor USA). The LDH assay was performed for MCF-7 and MDA-MB-231 cells (seeded at 2×10^4 density). As a positive control cell permeabilization with 1%Triton X-100 was used. The assay was performed 72h after start the incubation. Briefly, the plates were centrifuged at 400 ×g for 5 minutes, and 100 μL of supernatant were transferred from each well to the new 96-well plate and analyzed according to the manufacturer’s protocol. 100 μL of reaction mixture, containing lactic acid, NAD^+, tetrazolium salt and diaphorase, was added to each well. Plates were incubated on an orbital shaker for 30 minutes at room temperature and the absorbance at 490 nm was measured with a plate reader (Biotek Instruments, Elx-800). Results were expressed as a percentage of the total value of the positive control.

[1] = tested on: ERα W383S transfected HEK293 cells; test: MTT cell viability, ERα W383S transfected HEK293 cells; type: cell-based, human; details: 0–100 μM, 72 h, compared to wild type ERα, Fig 6B
Experimental: as §2, with “The formazan crystals were dissolved in 200 μl DMSO and plates were further agitated on a plate shaker at 300–500 rpm for 10 minutes.” left out
(§3) Fig 6 Estrogenic and cytotoxic activity of tested compounds in HEK293 cells transfected with wild type ERα receptor or plasmids bearing mutated versions of ERα. […] Results are expressed as mean ± SEM (n = 8). * p < 0.05 was considered statistically significant. […] 48 h after transfection, cells were incubated in the presence of increasing concentrations of compounds 18 for 72 h and cell viability was measured by MTT assay. […]

[2] = tested on: ERα transfected HEK293 cells; test: MTT cell viability, ERα transfected HEK293 cells; type: cell-based, human; details: 0–100 μM, 72 h, Fig 6B
Experimental: as §2, with “The formazan crystals were dissolved in 200 μl DMSO and plates were further agitated on a plate shaker at 300–500 rpm for 10 minutes.” left out
as §3

MDA-MB-231 cells = test: MTT assay, MDA-MB-231; type: cell-based, human
Experimental: as §1, §2

HEK293 cells = test: MTT cell viability, non-transfected (mock) HEK293 cells; type: cell-based, human; details: 0–100 μM, 72 h, Fig 6B
Experimental: as §2, with “The formazan crystals were dissolved in 200 μl DMSO and plates were further agitated on a plate shaker at 300–500 rpm for 10 minutes.” left out
as §3

Compound: Fc1ccc(NC(=S)c2ccc(NC(=S)c3ccc(F)cc3)cc2)cc1 [Compound 18]
- IC50 at 72 h (MTT assay, MCF-12A): 91.5 µM
- IC50 at 72 h (MTT assay, CCD39Lu): > 100 µM
- LDH release, MCF-7 (MCF-7 cells): relatively low increase
- Cell viability, ERα W383S transfected HEK293 [1]: decrease was significantly smaller
- Cell viability, ERα transfected HEK293 [2]: significantly decreased cell viability
- Toxicity/effect in MTT assay (in words), MDA-MB-231 (MDA-MB-231 cells; 72 h): non-significant effects
- IC50 (MDA-MB-231 cells; Homo sapiens, MDA-MB-231, 72 h, estrogen independent breast adenocarcinoma, read-out: Cytotoxic activity IC50, MDA-MB-231): > 100 µM
- Cell viability, non-transfected HEK293 (HEK293 cells): moderate cell toxicity
